We go through eight substances from patent US8084399B2, “Process for screening of a binding amphiphilic peptides specific for hairpin RNA” (priority 2009, dated 2011).

Where no end group is shown, it is not given here. [ ]: non-standard residue; d: D form. Orn = NCCC[C@H](N)C(=O)O; Dab = NCC[C@H](N)C(=O)O; Dap = NC[C@H](N)C(=O)O

The test system of data set [1] is IRES RNA. In words: Tryptophan fluorescence strength on addition of target RNA. The format is binding, HCV. Here is the method:
Fluorescence strength was measured to investigate target RNA binding of the third generation peptides. When tryptophan is activated by 285 nm light, it becomes fluorescent at the wavelength. Changes of fluorescence resulted from the binding respectively to different targets such as IRES, RRE, TAR and 16S A-site RNA, were measured. 0.02 equivalent of target RNA was added slowly to 1 uM peptide solution containing tryptophan.

Data set [2] can be described thus: Circular dichroism (CD), percentage of alpha-helix. It counts as physicochemical. Particulars: CD at 20° C., condition not given; for Alpha-helical rate (%), second value of pair: value after the slash; for Alpha-helical rate (%), first value of pair: value before the slash. The essentials: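 Spectra recorded at 20 °C, 190–250 nm, three averaged scans, background-corrected and converted to mean residue ellipticity. Helix fraction derived from [θ] at 222 nm relative to full-helix and random-coil reference values, which depend on residue number and temperature.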
On the technique in general: Circular dichroism is the unequal absorption of left and right circularly polarised light.

For a further data set, the target named is TAR hairpin RNA. As to the kind of experiment: Fluorescence anisotropy competition with Rev-N-rhodamine probe, binding to TAR hairpin RNA. Further details: species or system HIV. Particulars: fluorescence anisotropy, 20° C., pH 7.4; read-out: Dissociation constant, TAR. The essentials:
(§1)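 Competitive fluorescence anisotropy at 20° C in 20 mM HEPES pH 7.4, 140 mM NaCl, 5 mM KCl, 1 mM MgCl2. Heat-refolded target RNA bound to 10 nM Rev-N-rhodamine probe; peptide titrated until anisotropy returned to baseline, and Kd fitted from a competition binding equation.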
(Polarisation of emitted light reports the rotation of a fluorescent probe.)

The next data set deals with 16S ribosomal RNA A-site. As to the kind of experiment: Fluorescence anisotropy competition with Rev-N-rhodamine probe, binding to 16S A-site. Particulars: 20° C., pH 7.4, read-out: Dissociation constant, 16S A-site. The essentials:
as §1

A further data set has as its target RRE hairpin RNA. As to the kind of experiment: Fluorescence anisotropy competition with Rev-N-rhodamine probe, binding to RRE hairpin RNA. On the set-up: species or system HIV. Particulars: 20° C., pH 7.4, read-out: Dissociation constant, RRE. The essentials: as §1
For a further data set, the system named is IRES domain IV hairpin. As to the kind of experiment: Fluorescence anisotropy competition with Rev-N-rhodamine probe, binding to IRES hairpin. Further details: species or system HCV. The following applies: for differentiation coefficient (IRES): (mean Kd to other hairpin RNA)/(Kd to one hairpin RNA); for Kd: fluorescence anisotropy, 20° C., pH 7.4, read-out: Dissociation constant, IRES. An outline of the steps:
as §1

Data set [3] has as its system IRES RNA. In words: Solid surface method (biotin peptide on streptavidin plate, isotope-labeled RNA) with or without tRNAmix. The format is binding, HCV. The following applies: comparison with/without tRNAmix, in words. The protocol:
Solid surface method was performed to investigate specificity to target RNA of the third generation peptides. Particularly, biotin was conjugated to N-terminal of the peptide, resulting in the preparation for streptavidin binding. 5′-end of target RNA was labeled with an isotope. Streptavidin coated plate was prepared, to which the amphiphilic peptide was adhered at different concentrations. The plate was reacted with a certain amount of the isotope-labeled RNA, followed by washing. Only the RNA conjugated with the amphiphilic peptide was obtained. IC50 was calculated based on the concentration of the target RNA. Experiments were performed in the presence and in the absence of tRNA^mix (Sigma-Aldrich, Germany), and the results were compared.

As for “LKKLLKLLKKLLKWAG [2u, tryptophan scanned second generation peptide]”, the “Fluorescence strength of tryptophan reduced by” value in the data set with IRES RNA [1] (wavelength moved to shorter site, IRES) turned out to be 1.6 fold. Further, the “Alpha-helical rate (%), second value of pair” value in data set [2] worked out at 52%. Also, in data set [2], the “Alpha-helical rate (%), first value of pair” value was found to be 20%. The Kd is 7.8 nM on TAR hairpin RNA, 3.3 nM at 16S ribosomal RNA A-site, 18 nM at RRE hairpin RNA and 0.69 nM at IRES domain IV hairpin. For the same substance, in the data set on IRES domain IV hairpin, the “differentiation coefficient (IRES)” value is 14. Moreover, in the data set with IRES domain IV hairpin (compared with the original peptide), the “binding strength to IRES, in words” value is recorded as “significantly increased”.

As for “LKKLLKWLOrnKLLDapLAG (LKKLLKWL[Orn]KLL[Dap]LAG-NH2; N-terminus assumed; SMILES CC(C)C[C@H](NC(=O)[C@H](CN)NC(=O)[C@H](CC(C)C)NC(=O)[C@H](CC(C)C)NC(=O)[C@H](CCCCN)NC(=O)[C@H](CCCN)NC(=O)[C@H](CC(C)C)NC(=O)[C@H](Cc1c[nH]c2ccccc12)NC(=O)[C@H](CCCCN)NC(=O)[C@H](CC(C)C)NC(=O)[C@H](CC(C)C)NC(=O)[C@H](CCCCN)NC(=O)[C@H](CCCCN)NC(=O)[C@@H](N)CC(C)C)C(=O)N[C@@H](C)C(=O)NCC(N)=O) [peptide 3d, third generation peptide, both faces modified]”, the “IC50 to IRES RNA in the presence or in the absence of tRNAmix” value in the data set on IRES RNA [3] is “not much different”. In addition, the “Fluorescence strength of tryptophan at #7 reduced from that of tryptophan at #14 of peptide 3h” value in the data set with IRES RNA [1] (in the presence of IRES) was 2.3 fold. Besides, in data set [2], the “Alpha-helical rate (%), second value of pair” value came to 38%. Moreover, the “Alpha-helical rate (%), first value of pair” value in data set [2] is 32%. In addition, the Kd amounted to 24 nM at TAR hairpin RNA, 25 nM on 16S ribosomal RNA A-site, 26 nM on RRE hairpin RNA and 0.55 nM on IRES domain IV hairpin. The “differentiation coefficient (IRES)” value in the data set with IRES domain IV hairpin was found to be 45.

For “LKKLLKLLKKLLDabLAG (LKKLLKLLKKLL[Dab]LAG-NH2; N-terminus assumed; SMILES CC(C)C[C@H](NC(=O)[C@H](CCN)NC(=O)[C@H](CC(C)C)NC(=O)[C@H](CC(C)C)NC(=O)[C@H](CCCCN)NC(=O)[C@H](CCCCN)NC(=O)[C@H](CC(C)C)NC(=O)[C@H](CC(C)C)NC(=O)[C@H](CCCCN)NC(=O)[C@H](CC(C)C)NC(=O)[C@H](CC(C)C)NC(=O)[C@H](CCCCN)NC(=O)[C@H](CCCCN)NC(=O)[C@@H](N)CC(C)C)C(=O)N[C@@H](C)C(=O)NCC(N)=O) [2h, second generation peptide, hydrophilic face modified]”, the “Alpha-helical rate (%), second value of pair” value in data set [2] is listed as 34%. Moreover, the “Alpha-helical rate (%), first value of pair” value in data set [2] worked out at 24%. For the same substance, the Kd on TAR hairpin RNA came out at 12 nM; on 16S ribosomal RNA A-site, 25 nM; at RRE hairpin RNA it was 14 nM; on IRES domain IV hairpin, 8.7 nM. Also, the “differentiation coefficient (IRES)” value with IRES domain IV hairpin amounted to 2.0.

On to “LKKWLKLLKKLLKLAG [2o, tryptophan scanned second generation peptide]”, for which the “Alpha-helical rate (%), second value of pair” value in data set [2] was found to be 52%. The “Alpha-helical rate (%), first value of pair” value in data set [2] came to 4.6%. The Kd on TAR hairpin RNA is 34 nM; on 16S ribosomal RNA A-site, 15 nM; at RRE hairpin RNA it was 5.9 nM; on IRES domain IV hairpin it was 3.3 nM. Further, the “differentiation coefficient (IRES)” value in the data set on IRES domain IV hairpin is given as 5.6.

Regarding “LKKLLKLLKKLWKLAG [2t, tryptophan scanned second generation peptide]”, in data set [2], the “Alpha-helical rate (%), second value of pair” value is 58%. Moreover, in data set [2], the “Alpha-helical rate (%), first value of pair” value amounted to 12%. In addition, the Kd at TAR hairpin RNA stood at 10 nM; at 16S ribosomal RNA A-site, 17 nM; at RRE hairpin RNA, 13 nM; on IRES domain IV hairpin, 2.3 nM. In addition, the “differentiation coefficient (IRES)” value in the data set on IRES domain IV hairpin is on record as 5.9.

Take “LKKLWKLLKKLLKLAG [2p, tryptophan scanned second generation peptide]”: the “Alpha-helical rate (%), second value of pair” value in data set [2] amounted to 56%. Besides, in data set [2], the “Alpha-helical rate (%), first value of pair” value amounted to 20%. Also, the Kd on TAR hairpin RNA is 9.8 nM; on 16S ribosomal RNA A-site, 12 nM; on RRE hairpin RNA, 6.2 nM; at IRES domain IV hairpin it was 2.8 nM. In the data set on IRES domain IV hairpin, the “differentiation coefficient (IRES)” value was determined as 3.3.

For “LKKLLDabLLKKLLDapLAG (LKKLL[Dab]LLKKLL[Dap]LAG-NH2; N-terminus assumed; SMILES CC(C)C[C@H](NC(=O)[C@H](CN)NC(=O)[C@H](CC(C)C)NC(=O)[C@H](CC(C)C)NC(=O)[C@H](CCCCN)NC(=O)[C@H](CCCCN)NC(=O)[C@H](CC(C)C)NC(=O)[C@H](CC(C)C)NC(=O)[C@H](CCN)NC(=O)[C@H](CC(C)C)NC(=O)[C@H](CC(C)C)NC(=O)[C@H](CCCCN)NC(=O)[C@H](CCCCN)NC(=O)[C@@H](N)CC(C)C)C(=O)N[C@@H](C)C(=O)NCC(N)=O) [2l, second generation peptide, hydrophilic face modified]”, in data set [2], the “Alpha-helical rate (%), second value of pair” value is given as 50%. In data set [2], the “Alpha-helical rate (%), first value of pair” value was found to be 40%. Moreover, the Kd on TAR hairpin RNA was determined as 16 nM; on 16S ribosomal RNA A-site, 14 nM; at RRE hairpin RNA, 14 nM; at IRES domain IV hairpin it was 1.1 nM. For the same substance, the “differentiation coefficient (IRES)” value in the data set on IRES domain IV hairpin is listed as 13.

Regarding “LKKLLDabWLKKLLKLAG (LKKLL[Dab]WLKKLLKLAG-NH2; N-terminus assumed; SMILES CC(C)C[C@H](NC(=O)[C@H](CCCCN)NC(=O)[C@H](CC(C)C)NC(=O)[C@H](CC(C)C)NC(=O)[C@H](CCCCN)NC(=O)[C@H](CCCCN)NC(=O)[C@H](CC(C)C)NC(=O)[C@H](Cc1c[nH]c2ccccc12)NC(=O)[C@H](CCN)NC(=O)[C@H](CC(C)C)NC(=O)[C@H](CC(C)C)NC(=O)[C@H](CCCCN)NC(=O)[C@H](CCCCN)NC(=O)[C@@H](N)CC(C)C)C(=O)N[C@@H](C)C(=O)NCC(N)=O) [3a, third generation peptide, both faces modified]”, in data set [2], the “Alpha-helical rate (%), second value of pair” value is on record as 55%. Also, the “Alpha-helical rate (%), first value of pair” value in data set [2] stood at 29%. In addition, the Kd came to 19 nM at TAR hairpin RNA, 13 nM at 16S ribosomal RNA A-site, 22 nM at RRE hairpin RNA and 1.8 nM at IRES domain IV hairpin. Also, the “differentiation coefficient (IRES)” value in the data set on IRES domain IV hairpin amounted to 10.
